Molecules are shown by their SMILES.

The target of this assay is Substance-P receptor (Bos taurus). Put plainly: Binding affinity was measured against the Tachykinin receptor 1 in bovine retina using [3H]SP.

What is called IC50 is the concentration that inhibits the measured activity by half. Low values mean greater potency in that assay, high ones weaker potency in that assay. In turn, `Cc1cc(C)cc(C(=O)N[C@H]2CCN(C(=O)c3cc(Cl)cc(Cl)c3)[C@H](Cc3ccccc3)C2)c1` displayed a 50% inhibitory concentration (IC50) of 25.7 nM.
Compound `Cc1cc(C)cc(C(=O)N2CC[C@H](NCCc3ccccc3)C[C@H]2Cc2ccccc2)c1` [CGP-47899] had a concentration for half-maximal inhibition (IC50) of 15.1 nM.
